The results in this text go back to patent US10597388B2, “Pyridazinone herbicides” (FMC CORPORATION, priority 2014, dated 2020).

SMILES strings stand for the structures. Where two headings read alike, the source gives them in different places.

Common to all, as to format: in vivo
The subject of assay [1] is barnyardgrass (Echinochloa crus-galli). The assay is described as follows: Test B flooded paddy test. The following applies: Echinochloa crus-galli, 360 h; 250 g ai/ha, Flood; visual rating on scale of 0 to 100 where 0 is no effect and 100 is complete control; 13 to 15 d after treatment; read-out: Plant response rating, Barnyardgrass. In a few lines:
(§1)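 Ratings use a 0-100 visual scale, where 100 is complete control, and compare treated plants with controls after 13 to 15 d of greenhouse growth. Compound went straight into paddy water kept 3 cm over the soil surface, applied to seedlings at the 2-leaf stage.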

Assay [2] deals with sedge, umbrella (small-flower umbrella sedge, Cyperus difformis). The assay is described as follows: Test B flooded paddy test. The following applies: Cyperus difformis, 360 h; 250 g ai/ha, Flood; visual rating on scale of 0 to 100 where 0 is no effect and 100 is complete control; 13 to 15 d after treatment; read-out: Plant response rating, Sedge, Umbrella. In a few lines:
as §1

The next assay concerns rice (Oryza sativa). The assay is described as follows: Test B flooded paddy test. To be noted: Oryza sativa, 360 h; 250 g ai/ha, Flood; visual rating on scale of 0 to 100 where 0 is no effect and 100 is complete control; 13 to 15 d after treatment; read-out: Plant response rating, Rice. In a few lines: as §1
Assay [3] relates to ducksalad (Heteranthera limosa). The assay can be described thus: Test B flooded paddy test. To be noted: Heteranthera limosa, 360 h; 250 g ai/ha, Flood; visual rating on scale of 0 to 100 where 0 is no effect and 100 is complete control; 13 to 15 d after treatment; read-out: Plant response rating, Ducksalad. In a few lines:
as §1

Assay [4] has as its system barnyardgrass (Echinochloa crus-galli). The assay is described as follows: Test A greenhouse herbicide test, pre- and postemergence. The following applies: Echinochloa crus-galli, 240 h; for pest or weed control at 1000 g/ha: 1000 g ai/ha; for pest or weed control at 1000 g/ha / pest or weed control at 500 g/ha: 0 to 100 scale; for pest or weed control at 125 g/ha: 125 g ai/ha; for pest or weed control at 500 g/ha: 500 g ai/ha. The method, boiled down:
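Visual injury ratings, 0 (no effect) to 100 (complete control), versus untreated plants after roughly 10 d in a greenhouse. Compounds, formulated in a surfactant-containing non-phytotoxic solvent, were sprayed on loam–sand soil after sowing (pre) or on one- to two-leaf plants 2–10 cm tall (post).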

Assay [5] concerns chickweed (common chickweed, Stellaria media). The assay is described as follows: Test C greenhouse herbicide test, postemergence. The method, boiled down: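 Steps: pot plants in peat-based medium; spray postemergence at 1- to 4-leaf stage; hold in greenhouse 13 to 15 d; score visually against controls from 0 (no effect) to 100 (complete control).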
Assay [6] has as its system galium (catchweed bedstraw, Galium aparine). The assay is described as follows: Test A greenhouse herbicide test, postemergence. To be noted: Galium, post-emergence, 240 h; for pest or weed control at 125 g/ha: 125 g ai/ha, visual rating after approx. 10 d, 0 to 100 scale (0 no effect, 100 complete control), read-out: Plant response rating, Galium; for pest or weed control at 500 g/ha: 500 g ai/ha, 0 to 100 scale, 0 is no effect, 100 is complete control, read-out: Galium plant response rating. The method, boiled down:
(§2)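 Scores are visual injury ratings from 0 (no effect) to 100 (complete control) versus untreated plants, taken roughly 10 d after treatment in the greenhouse. Treatment was postemergence, on one- to two-leaf plants 2–10 cm high growing in a loam soil/sand mix.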

The subject of assay [7] is blackgrass (Alopecurus myosuroides). The assay can be described thus: Test A greenhouse herbicide test, postemergence. The following applies: Alopecurus myosuroides, post-emergence, 240 h; for pest or weed control at 125 g/ha: 125 g ai/ha, visual rating after approx. 10 d, 0 to 100 scale (0 no effect, 100 complete control), read-out: Plant response rating, Blackgrass; for pest or weed control at 500 g/ha: 500 g ai/ha, 0 to 100 scale, 0 is no effect, 100 is complete control, read-out: Blackgrass plant response rating. The method, boiled down: as §2

Where [8] appears, read: post-emergence, Postemergence, 0 is no effect, 100 is complete control, read-out: Barnyardgrass plant response rating.
[9] abbreviates: pre-emergence, Preemergence, 0 no effect, 100 complete control, read-out: Plant response rating, Barnyardgrass.
[10] abbreviates: post-emergence, Postemergence, visual rating after approx. 10 d, 0 to 100 scale (0 no effect, 100 complete control), read-out: Plant response rating, Barnyardgrass.
Setting [11] is: pre-emergence, Preemergence, 0 to 100 scale where 0 is no effect and 100 is complete control, read-out: Barnyardgrass plant response rating.

Consider `Cc1ccc2sc(C)c(-c3c(O)c(C)nn(C)c3=O)c2c1` [Compound 1, 4-(2,5-dimethylbenzo[b]thien-3-yl)-5-hydroxy-2,6-dimethyl-3(2H)-pyridazinone], for which the pest or weed control at 250 g/ha in assay [1] was found to be 0%; in assay [2], 0%; in assay [3] it was 20%. For the same compound, the plant injury at 250 g/ha with rice (Oryza sativa) came out at 0%. In addition, the pest or weed control at 1000 g/ha in assay [4] (setting [8]) and in assay [4] (setting [9]) was 90% throughout. Further, the “Chickweed plant response rating” value stood at 95 in assay [5] (Postemergence, 31 g ai/ha, 0 to 100 scale (0 no effect, 100 complete control)) and 95 in assay [5] (postemergence, 62 g ai/ha, scale 0 to 100, 0 no effect, 100 complete control). The “Plant response rating, Chickweed” value is 98 in assay [5] (Postemergence, 125 g ai/ha, scale 0 to 100, 0 is no effect, 100 is complete control) and 100 in assay [5] (Postemergence, 250 g ai/ha, scale 0 to 100, 0 no effect, 100 complete control, 13 to 15 d).
On to `Cc1cc(C)c2oc(C)c(-c3c(O)c(C)nn(C)c3=O)c2c1` [Compound 12, 5-hydroxy-2,6-dimethyl-4-(2,5,7-trimethyl-3-benzofuranyl)-3(2H)-pyridazinone], for which the pest or weed control at 125 g/ha in assay [6] was found to be 60%; in assay [7] it was 20%; in assay [4] (setting [10]), 0%; in assay [4] (setting [11]), 20%. Moreover, the pest or weed control at 500 g/ha in assay [6] amounted to 90%; in assay [7], 50%; in assay [4] (setting [8]) it was 40%; in assay [4] (setting [9]), 80%. The pest or weed control at 250 g/ha was 0% in assay [1], 0% in assay [2] and 30% in assay [3]. Besides, the plant injury at 250 g/ha in the assay on rice (Oryza sativa) was determined as 0%.
Turning to `CC(=O)Oc1c(C)nn(C)c(=O)c1-c1c(C)oc2c(C)cccc12` [Compound 15, 5-(acetyloxy)-4-(2,7-dimethyl-3-benzofuranyl)-2,6-dimethyl-3(2H)-pyridazinone], the pest or weed control at 125 g/ha is 70% in assay [6], 0% in assay [7], 70% in assay [4] (setting [10]) and 20% in assay [4] (setting [11]). Moreover, the pest or weed control at 500 g/ha in assay [6] amounted to 90%; in assay [7], 50%; in assay [4] (setting [8]), 90%; in assay [4] (setting [9]) it was 90%. The pest or weed control at 250 g/ha in assay [1] is 0%; in assay [2] it was 0%; in assay [3], 20%. In addition, the plant injury at 250 g/ha in the assay with rice (Oryza sativa) was determined as 0%.
As for `CCc1sc2cc(C)cc(C)c2c1-c1c(O)c(C)nn(C)c1=O` [Compound 19, 4-(2-ethyl-4,6-dimethylbenzo[b]thien-3-yl)-5-hydroxy-2,6-dimethyl-3(2H)-pyridazinone], the pest or weed control at 125 g/ha in assay [6] stood at 30%; in assay [7], 0%; in assay [4] (setting [10]) it was 20%; in assay [4] (setting [11]) it was 30%. Besides, the pest or weed control at 500 g/ha amounted to 80% in assay [6], 0% in assay [7], 80% in assay [4] (setting [8]) and 90% in assay [4] (setting [9]). For the same compound, the pest or weed control at 250 g/ha in assay [1], in assay [2] and in assay [3] was 0% in each case. Besides, the plant injury at 250 g/ha in the assay on rice (Oryza sativa) turned out to be 0%.
